Experiments:
[1] = system: TNFα release in THP-1 cells; assay: LPS-induced TNFα release in THP-1 cells; assay type: cell-based, human; settings: Homo sapiens
Procedure: LPS-Induced TNFα Release in THP-1 Cells
THP-1 cells, a human monocytic cell line, were stimulated with 3 μg/mL of LPS (from E. Coli; 0111:B4, Sigma) for 4 hr and the supernatant collected for determination of the TNFα concentration by sandwich ELISA (Duo-set, R&D systems). The inhibition of TNFα production was calculated at each concentration by comparison with vehicle control. The 50% inhibitory concentration (IC50) was determined from the resultant concentration-response curve.

[2] = molecular target: T1, p38 MAPKγ (MAPK12) (Homo sapiens, UniProt P53778); assay: Enzyme inhibition assay (FRET, Z-LYTE), p38 MAPKγ; assay type: biochemical; settings: read-out: Enzyme Inhibition IC50 p38γ
T1 construct: purchased Invitrogen
T1 sequence (P53778 1-367): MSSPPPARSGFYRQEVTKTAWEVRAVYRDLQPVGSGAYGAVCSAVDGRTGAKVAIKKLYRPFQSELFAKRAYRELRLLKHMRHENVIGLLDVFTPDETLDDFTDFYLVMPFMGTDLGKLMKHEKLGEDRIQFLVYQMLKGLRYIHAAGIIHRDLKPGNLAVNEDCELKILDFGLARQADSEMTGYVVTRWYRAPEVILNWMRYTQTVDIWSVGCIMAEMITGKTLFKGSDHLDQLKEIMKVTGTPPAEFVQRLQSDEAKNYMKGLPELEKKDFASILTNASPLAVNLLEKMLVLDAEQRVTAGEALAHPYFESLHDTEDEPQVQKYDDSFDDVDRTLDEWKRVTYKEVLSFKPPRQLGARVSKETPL
Procedure: (§1) The enzyme inhibitory activities of compounds disclosed herein were determined by fluorescence resonance energy transfer (FRET) using synthetic peptides labelled with both donor and acceptor fluorophores (Z-LYTE, Invitrogen Ltd., Paisley, UK). Recombinant, phosphorylated p38 MAPKγ (MAPK12:Invitrogen) was diluted in HEPES buffer, mixed with the test compound at the desired final concentrations and incubated for 2 hr at RT. The FRET peptide (2 μM) and ATP (100 μM) were added to the enzyme/compound mixture and incubated for 1 hr. Development reagent (protease) was added for 1 hr prior to detection in a fluorescence microplate reader (Varioskan® Flash, ThermoFisher Scientific). The site-specific protease cleaves non-phosphorylated peptide only and eliminates the FRET signal. Phosphorylation levels of each reaction were calculated using the ratio of coumarin emission (donor) over fluorescein emission (acceptor) for which high ratios indicate high phosphorylation and low ratios indicate low phosphorylation levels. The percentage inhibition of each reaction was calculated relative to non-inhibited control and the 50% inhibitory concentration (IC50 value) then calculated from the concentration-response curve.

[3] = molecular target: T2, p38 MAPKα isoform (MAPK14) (Homo sapiens, UniProt Q16539); assay: Enzyme inhibition assay (FRET, Z-LYTE), p38 MAPKα via MAPKAP-K2 activation; assay type: biochemical; settings: read-out: Enzyme Inhibition IC50 p38α
T2 construct: purchased Invitrogen
T2 sequence (Q16539 whole entry, canonical isoform): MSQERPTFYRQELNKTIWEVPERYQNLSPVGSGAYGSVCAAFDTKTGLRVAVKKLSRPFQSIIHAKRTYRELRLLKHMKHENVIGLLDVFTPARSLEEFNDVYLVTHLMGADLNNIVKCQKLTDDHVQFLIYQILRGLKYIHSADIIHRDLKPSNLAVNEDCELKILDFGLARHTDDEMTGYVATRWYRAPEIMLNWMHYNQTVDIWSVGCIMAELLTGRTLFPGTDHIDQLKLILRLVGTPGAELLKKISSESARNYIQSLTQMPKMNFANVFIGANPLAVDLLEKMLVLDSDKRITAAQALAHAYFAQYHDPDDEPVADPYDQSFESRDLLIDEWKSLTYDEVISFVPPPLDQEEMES
Procedure: as §1
For the p38 MAPKα isoform (MAPK14: Invitrogen), enzyme activity was evaluated indirectly by determining the level of activation/phosphorylation of the down-stream molecule, MAPKAP-K2. The p38 MAPKα protein was mixed with the test compound for 2 hr at RT. […] Development reagent was then added and the mixture incubated for 1 hr before detection by fluorescence completed the assay protocol.

[4] = system: Differentiated U937 cells; assay: Cell viability MTT assay; assay type: cell-based, human; settings: negative = apparent increase in viability; for MTT Assay (Viability) 4 h d-U937, percentage loss of cell viability: 4 hr in 5% FCS; for MTT Assay (Viability) 24 h d-U937, percentage loss of cell viability: 24 h in 10% FCS
Procedure: Differentiated U937 cells were pre-incubated with each test compound under two protocols: the first for 4 hr in 5% FCS and the second in 10% FCS for 24 h. The supernatant was replaced with 200 μL of new media and 10 μL of MTT stock solution (5 mg/mL) was added to each well. After incubation for 1 hr the media were removed, 200 μL of DMSO was added to each well and the plates were shaken lightly for 1 hr prior to reading the absorbance at 550 nm. The percentage loss of cell viability was calculated for each well relative to vehicle (0.5% DMSO) treatment. Consequently an apparent increase in cell viability for drug treatment relative to vehicle is tabulated as a negative percentage.

[5] = system: TNFα release in d-U937 cells; assay: LPS-induced TNFα release in d-U937 cells; assay type: cell-based, human; settings: Homo sapiens, dU937, relative to 10 μg/mL BIRB796, read-out: LPS/TNFα REC50 d-U937
Procedure: (§2) LPS-Induced TNFα/IL-8 Release in d-U937 Cells
(§3) U937 cells, a human monocytic cell line, were differentiated to macrophage-type cells by incubation with phorbol myristate acetate (PMA; 100 ng/ml) for 48 to 72 hr. Cells were pre-incubated with final concentrations of test compound for 2 hr and were then stimulated with 0.1 μg/mL of LPS (from E. Coli: O111:B4, Sigma) for 4 hr. The supernatant was collected for determination of TNFα and IL-8 concentrations by sandwich ELISA (Duo-set, R&D systems). The inhibition of TNFα production was calculated as a percentage of that achieved by 10 μg/mL of BIRB796 at each concentration of test compound by comparison against vehicle control. The relative 50% effective concentration (REC50) was determined from the resultant concentration-response curve. The inhibition of IL-8 production was calculated at each concentration of test compound by comparison with vehicle control. The 50% inhibitory concentration (IC50) was determined from the resultant concentration-response curve.

[6] = system: ICAM-1 induction in BEAS2B cells; assay: Poly I:C-induced ICAM-1 induction in BEAS2B cells; assay type: cell-based, human; settings: Homo sapiens, BEAS-2B, read-out: PolyIC/ICAM1 IC50 BEAS2B
Procedure: Poly I:C-Induced ICAM-1 Induction in BEAS2B Cells
Poly I:C (1 μg/mL) (Invivogene Ltd., San Diego, Calif.) was transfected into BEAS2B cells (human bronchial epithelial cells, ATCC) with Oligofectamine (Invitrogen, Carlsbad, Calif.). Cells were pre-incubated with final concentrations of test compounds for 2 hr and the level of ICAM1 expression on the cell surface was determined by cell-based ELISA. At a time point 18 hr after poly I:C transfection, cells were fixed with 4% formaldehyde in PBS and then endogenous peroxidase was quenched by the addition of 0.1% sodium azide and 1% hydrogen peroxide. Cells were washed with wash-buffer (0.1% Tween in PBS: PBS-Tween). and after blocking the wells with 5% milk in PBS-Tween for 1 hr, the cells were incubated with anti-human ICAM-1 antibody (Cell Signaling Technology, Danvers, Mass.) in 1% BSA PBS overnight at 4° C. The cells were washed with PBS-Tween and incubated with the secondary antibody (HRP-conjugated anti-rabbit IgG, Dako Ltd., Glostrup, Denmark). The ICAM-1 signal was detected by adding substrate and reading the absorbance at 450 nm against a reference wavelength of 655 nm using a spectrophotometer. The cells were then washed with PBS-Tween and total cell numbers in each well were determined by reading absorbance at 595 nm after Crystal Violet staining and elution by 1% SDS solution. The measured OD 450-655 readings were corrected for cell number by dividing with the OD595 reading in each well. The inhibition of ICAM-1 expression was calculated at each concentration of test compound by comparison with vehicle control. The 50% inhibitory concentration (IC50) was determined from the resultant concentration-response curve.

[7] = system: IL-8 release in d-U937 cells; assay: LPS-induced IL-8 release in d-U937 cells; assay type: cell-based, human; settings: Homo sapiens, dU937
Procedure: as §2, §3

| SMILES | IC50 [1] | IC50 [2] | IC50 [3] | MTT Assay (Viability) 4 h d-U937, percentage loss of cell viability [4] | MTT Assay (Viability) 24 h d-U937, percentage loss of cell viability [4] | EC50 [5] | IC50 [6] | IC50 [7] |
| --- | --- | --- | --- | --- | --- | --- | --- | --- |
| CN(C)[C@@H]1CCN(C(=O)Nc2cc(Oc3ccc(NC(=O)Nc4cc(C(C)(C)C)nn4-c4ccc(O)cc4)c(Cl)c3Cl)ccn2)C1 [Example 11, (R)—N-(4-(4-(3-(3-tert-Butyl-1-(4-hydroxyphenyl)-1H-pyrazol-5-yl)ureido)-2,3-dichlorophenoxy)pyridin-2-yl)-3-(dimethylamino)pyrrolidine-1-carboxamide] | 0.7 nM | 38.7 nM | 15.9 nM | −1.3% | 42.0% | 0.8 nM | 1.8 nM | 4.5 nM |
| CCNC(=O)Nc1cc(Oc2ccc(NC(=O)Nc3cc(C(C)(C)C)nn3-c3ccc(OC)cc3)c(Cl)c2Cl)ccn1 [Example 12, 1-(4-(4-(3-(3-tert-Butyl-1-(4-methoxyphenyl)-1H-pyrazol-5-yl)ureido)-2,3-dichlorophenoxy)pyridin-2-yl)-3-ethylurea] | 1.6 nM | 57.2 nM | 24.7 nM | 5.0% | 24.1% | 1.7 nM | 2.7 nM | 0.2 nM |
| COc1ccc(-n2nc(C(C)(C)C)cc2NC(=O)Nc2ccc(Oc3ccnc(NC(=O)NCCN(C)C)c3)c(Cl)c2Cl)cc1 [Example 13, 1-(3-tert-Butyl-1-(4-methoxyphenyl)-1H-pyrazol-5-yl)-3-(2,3-dichloro-4-((2-(3-(2-(dimethylamino)ethyl)ureido)pyridin-4-yl)oxy)phenyl)urea] | 1.7 nM | 21.7 nM | 11.2 nM | −6.4% | 63.9% | 2.1 nM | 2.1 nM | 1.3 nM |
| COCC(=O)Nc1cc(COc2ccc(NC(=O)Nc3cc(C(C)(C)C)nn3-c3ccc(C)cc3)c(Cl)c2Cl)ccn1 [Example 14, N-(4-((4-(3-(3-tert-Butyl-1-p-tolyl-1H-pyrazol-5-yl)ureido)-2,3-dichlorophenoxy)methyl)pyridin-2-yl)-2-methoxyacetamide] | 6.1 nM | 33.1 nM | 17 nM | −7.9% | 49.6% | 40.8 nM | 32.2 nM | 70.2 nM |
| COCC(=O)Nc1cc(COc2ccc(NC(=O)Nc3cc(C(C)(C)C)nn3-c3ccc(OC)cc3)c(Cl)c2Cl)ccn1 [Example 15, N-(4-((4-(3-(3-tert-Butyl-1-(4-methoxyphenyl)-1H-pyrazol-5-yl)ureido)-2,3-dichlorophenoxy)methyl)pyridin-2-yl)-2-methoxyacetamide] | 19.9 nM | 107 nM | 15.7 nM | −12.2% | 12.4% | 83.8 nM | 31.2 nM | 162 nM |
| COCC(=O)Nc1cc(COc2ccc(NC(=O)Nc3cc(C(C)(C)C)nn3-c3ccc(C)cc3)c3cccnc23)ccn1 [Example 16, N-(4-((5-(3-(3-tert-Butyl-1-p-tolyl-1H-pyrazol-5-yl)ureido)quinolin-8-yloxy)methyl)pyridin-2-yl)-2-methoxyacetamide] | > 1690 nM | 1440 nM | 36.7 nM | −8.1% | −21.3% | 876 nM | > 1690 nM | 4960 nM |
| COCC(=O)Nc1cc(COc2ccc(NC(=O)Nc3cc(C(C)(C)C)nn3-c3ccc(OC)cc3)c3cccnc23)ccn1 [Example 17, N-(4-((5-(3-(3-tert-Butyl-1-(4-methoxyphenyl)-1H-pyrazol-5-yl)ureido)quinolin-8-yloxy)methyl)pyridin-2-yl)-2-methoxyacetamide] | > 1640 nM | > 16400 nM | 54.2 nM | −11.5% | 4.0% | 16200 nM | > 1640 nM | 17100 nM |
| CNC(=O)Nc1cc(COc2ccc(NC(=O)Nc3cc(C(C)(C)C)nn3-c3ccc(OC)cc3)c(Cl)c2Cl)ccn1 [Example 18, 1-(3-tert-Butyl-1-(4-methoxyphenyl)-1H-pyrazol-5-yl)-3-(2,3-dichloro-4-((2-(3-methylureido)pyridin-4-yl)methoxy)phenyl)urea] | 4.7 nM | > 16300 nM | 29.4 nM | 39.5% | −4.6% | 6.7 nM | 343 nM | 48.4 nM |
| Cc1ccc(-n2nc(C(C)(C)C)cc2NC(=O)Nc2ccc(OCc3ccnc(NC(=O)N4CCCC4)c3)c(Cl)c2Cl)cc1 [Example 19, N-(4-((4-(3-(3-tert-Butyl-1-(p-tolyl)-1H-pyrazol-5-yl)ureido)-2,3-dichlorophenoxy)methyl)pyridin-2-yl)pyrrolidine-1-carboxamide] | 12.3 nM | 4370 nM | 18.5 nM | −13.5% | 6.9% | 25.6 nM | 23.7 nM | 837 nM |
